The values below come from ChEMBL document CHEMBL5032522, “N-2-(phenylamino) benzamide derivatives as novel anti-glioblastoma agents: Synthesis and biological evaluation” (Eur J Med Chem, 2021).

Calls of active or inactive are those of the source. The calls are words filed in the database; no cut-off is given here.

The nature of data set [1]: AUC ( 0 to infinity) in Sprague-Dawley rat at 100 mg/kg, ip measured up to 24 hrs by LC-MS analysis. The format is ADME, organism-based. Also noted: route intraperitoneal, dose 100 mg/kg, time <=24. The following applies: in vivo.
Data set [2] can be described thus: Ratio of drug concentration in brain to plasma in Sprague-Dawley rat at 100 mg/kg, ip measured 6 hrs post administration by LC-MS/MS analysis. The format is ADME, organism-based. The following applies: read-out: BPR.
For data set [3], the system named is U-251. As to the kind of experiment: Induction of cell cycle arrest in human U-251 cells assessed as increase in G2 phase accumulation at 10 uM incubated for 72 hrs by propidium iodide/RNase A staining based flow cytometry (reference value: 20.88%). The format is functional. In general terms: Flow cytometry measures light scatter and fluorescence of single cells or particles in a stream.

Data set [4] has as its target T1, Prostaglandin G/H synthase 2 (Rattus norvegicus) (UniProt P35355).
T1 sequence (whole entry): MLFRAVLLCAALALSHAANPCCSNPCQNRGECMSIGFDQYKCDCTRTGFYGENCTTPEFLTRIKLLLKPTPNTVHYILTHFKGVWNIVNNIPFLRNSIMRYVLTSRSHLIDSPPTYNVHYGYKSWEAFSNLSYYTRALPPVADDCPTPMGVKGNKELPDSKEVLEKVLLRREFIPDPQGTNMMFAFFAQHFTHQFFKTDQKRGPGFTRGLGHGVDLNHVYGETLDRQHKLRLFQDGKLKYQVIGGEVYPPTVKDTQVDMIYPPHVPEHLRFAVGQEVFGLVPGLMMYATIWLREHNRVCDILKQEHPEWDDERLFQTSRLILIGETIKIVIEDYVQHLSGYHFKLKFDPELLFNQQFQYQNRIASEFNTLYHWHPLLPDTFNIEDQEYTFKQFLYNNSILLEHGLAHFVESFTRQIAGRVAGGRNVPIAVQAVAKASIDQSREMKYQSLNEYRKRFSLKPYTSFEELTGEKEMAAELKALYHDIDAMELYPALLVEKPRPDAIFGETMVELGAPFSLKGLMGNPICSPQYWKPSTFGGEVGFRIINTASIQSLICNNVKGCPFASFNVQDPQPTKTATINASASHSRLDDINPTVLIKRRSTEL
The data set can be described thus: In vivo inhibition of COX2 in ip dosed orthotopic Sprague-Dawley rat model inoculated with C6 cells assessed as reduction in PGE2 production by ELISA. The format is functional, organism-based. In general terms: ELISA stands for enzyme-linked immunosorbent assay.

Data set [5] has as its system U-251. The data set can be described thus: Inhibition of cell invasion in human U-251 cells incubated for 24 hrs by crystal violet staining based light microscopic analysis. The format is functional.
Data set [6] relates to U-251. As to the kind of experiment: Antiproliferative activity against human U-251 cells assessed as inhibition of cell growth measured after 72 hrs by CCK-8 assay. Format: functional, cell-based. The following applies: U-251, 72 h. In general terms: Tetrazolium assays rely on reduction of a dye to a coloured formazan, in cell work by metabolically active cells.
Data set [7] can be described thus: Acute toxicity in Kunming mouse assessed as death at 750 mg/kg, ip administered as single dose observed every day for 14 days. The format is organism-based. Particulars: in vivo, 336 h, time 14 day.
Data set [8] can be described thus: Cmax in Sprague-Dawley rat at 100 mg/kg, ip measured up to 24 hrs by LC-MS analysis. Format: ADME, organism-based. Also noted: route intraperitoneal, dose 100 mg/kg, time <=24. Particulars: in vivo.
A short description of data set [9]: Tmax in Sprague-Dawley rat at 100 mg/kg, ip measured up to 24 hrs by LC-MS analysis. The following applies: in vivo. The format is ADME, organism-based.
For data set [10], the system named is U-251. The data set can be described thus: Inhibition of cell migration in human U-251 cells incubated for 24 hrs by crystal violet staining based light microscopic analysis. Format: functional.
A short description of data set [11]: Acute toxicity in ip dosed Kunming mouse assessed as lethal dose measured after 14 days. The format is organism-based. Particulars: in vivo, time 14 day.
Data set [12] deals with U-87 MG. The data set can be described thus: Antiproliferative activity against human U-87 MG cells assessed as inhibition of cell growth measured up to 72 hrs by CCK-8 assay. The format is functional, cell-based. Particulars: U-87MG ATCC, time hrs <=72.
Data set [13] deals with U-251. As to the kind of experiment: Antiproliferative activity against human U-251 cells assessed as inhibition of cell growth measured up to 72 hrs by CCK-8 assay. The format is functional, cell-based. The following applies: time hrs <=72.
In a further data set the target is T2, DNA topoisomerase 1 (Homo sapiens, UniProt P11387).
T2 sequence (P11387 whole entry): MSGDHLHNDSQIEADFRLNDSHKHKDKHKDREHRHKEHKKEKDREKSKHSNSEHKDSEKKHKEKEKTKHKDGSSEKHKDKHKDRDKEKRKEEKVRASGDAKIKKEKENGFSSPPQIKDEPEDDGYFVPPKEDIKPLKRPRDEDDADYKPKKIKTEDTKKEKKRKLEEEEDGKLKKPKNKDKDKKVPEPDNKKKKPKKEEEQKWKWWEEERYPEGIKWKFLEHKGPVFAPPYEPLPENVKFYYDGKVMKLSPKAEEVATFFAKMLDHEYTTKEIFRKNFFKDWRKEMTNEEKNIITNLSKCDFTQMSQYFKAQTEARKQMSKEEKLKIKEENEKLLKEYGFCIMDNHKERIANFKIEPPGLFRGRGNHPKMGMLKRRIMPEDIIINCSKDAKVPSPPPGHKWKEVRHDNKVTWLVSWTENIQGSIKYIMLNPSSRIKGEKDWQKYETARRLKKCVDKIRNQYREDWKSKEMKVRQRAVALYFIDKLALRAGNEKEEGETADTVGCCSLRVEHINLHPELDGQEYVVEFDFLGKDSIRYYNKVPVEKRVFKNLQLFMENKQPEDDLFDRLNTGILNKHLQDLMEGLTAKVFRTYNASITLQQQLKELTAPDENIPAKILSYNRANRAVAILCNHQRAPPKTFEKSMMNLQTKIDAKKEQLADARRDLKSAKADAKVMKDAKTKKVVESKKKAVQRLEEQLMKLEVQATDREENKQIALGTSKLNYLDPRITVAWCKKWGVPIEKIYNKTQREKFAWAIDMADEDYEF
The data set can be described thus: Inhibition of human topoisomerase I using DNA pBR322 as substrate assessed as DNA relaxation incubated for 45 mins by ethidium bromide staining based agarose gel electrophoresis.

Data set [14] deals with U-251. As to the kind of experiment: Induction of morphological changes in human U-251 cells assessed as appearance of spindle cell shape at 3.3 uM incubated for 72 hrs by Giemsa staining based light microscopic method. The format is functional.
A short description of data set [15]: Toxicity in Sprague-Dawley rat inoculated with C6 cells assessed as reduction in body weight at 100 mg/kg, ip bid administered for 14 days. The format is organism-based. Particulars: in vivo, 336 h, time 14 day.
Data set [16] relates to U-87 MG. As to the kind of experiment: Induction of cell cycle arrest in human U-87 MG cells assessed as accumulation of cells at G2/M phase incubated for 72 hrs by propidium iodide/RNase A staining based flow cytometry analysis. The format is functional. Particulars: U-87MG ATCC.
The test system of data set [17] is U-87 MG. As to the kind of experiment: Inhibition of colony formation in human U-87 MG cells measured after 8 days by crystal violet staining based assay. The format is functional, cell-based. The following applies: U-87MG ATCC, time 8.0 day.
Data set [18] relates to U-87 MG. The data set can be described thus: Induction of morphological changes in human U-87 MG cells assessed as appearance of rounded and shortened cells at 3.3 uM incubated for 72 hrs by Giemsa staining based light microscopic method. Format: functional, cell-based. The following applies: U-87MG ATCC.
A short description of data set [19]: Acute toxicity in Kunming mouse assessed as death at 1000 mg/kg, ip administered as single dose observed every day for 14 days. The format is organism-based. The following applies: in vivo, 336 h, time 14 day.
The subject of data set [20] is U-251. The data set can be described thus: Induction of cell cycle arrest in human U-251 cells assessed as accumulation of cells at G2/M phase incubated for 72 hrs by propidium iodide/RNase A staining based flow cytometry analysis. The format is functional.
Data set [21] deals with U-87 MG. As to the kind of experiment: Induction of morphological changes in human U-87 MG cells assessed as membrane blebbing at 3.3 uM incubated for 72 hrs by Giemsa staining based light microscopic method. Format: functional, cell-based. The following applies: U-87MG ATCC.
Data set [22] has as its system U-251. The data set can be described thus: Induction of morphological changes in human U-251 cells assessed as appearance of shrunken cell bodies at 3.3 uM incubated for 72 hrs by Giemsa staining based light microscopic method. The format is functional.

With `COc1ccc(NC(=O)c2ccccc2Nc2cccc(Cl)c2C)cc1`, in data set [1], the AUC(0-inf) (usually total exposure, with the tail of the curve extrapolated) stood at 86200 ng·h/mL. Also, the Kp at 6 h in data set [2] is 0.65. Moreover, the Activity with U-251 [3] was 73.72%; in data set [7] it was “Non-Toxic”; in the data set on U-87 MG [12], “Dose-Dependent Effect”; with U-251 [13], “Dose-Dependent Effect”; in data set [15], “Non-Toxic”; in the data set on U-87 MG [16], “Dose-Dependent Effect”. Also, the Activity entry was “Toxic” in [19] and “Dose-Dependent Effect” with U-251 [20]. Moreover, in [4], the inhibition result is “Active”. Moreover, the inhibition entry in the data set on U-251 [5], in the data set on U-251 [10] and with U-87 MG [17] was “Dose-Dependent Effect” throughout. Also, the IC50 (in general, the concentration needed to halve the response being measured) came out at 5.36 µM with U-251 [6] and 33.6 µM at DNA topoisomerase 1. The highest concentration (Cmax) (in general, the maximum level reached in the sampled fluid or tissue) in data set [8] is 8370 ng/mL. The Tmax (as a rule, the time at which the peak concentration occurs) in data set [9] was 3.33 h. For the same compound, the LD50 (in general, the dose expected to kill half of the subjects tested) at 336 h in [11] stood at 300 mg/kg. In addition, the result with U-251 [14], in the data set with U-87 MG [18], in the data set on U-87 MG [21] and in the data set on U-251 [22] was Active.
With `Cc1c(Cl)cccc1Nc1ccccc1C(=O)Nc1ccc2c(c1)OCO2`, in data set [1], the AUC(0-inf) was 49200 ng·h/mL. Besides, the Kp at 6 h in data set [2] came out at 0.29. Further, the Activity in the data set on U-251 [3] was 74.64%; in data set [7] it was “Non-Toxic”; in the data set with U-87 MG [12] it was “Dose-Dependent Effect”; in the data set with U-251 [13], “Dose-Dependent Effect”; in data set [15] it was “Non-Toxic”; in the data set on U-87 MG [16] it was “Dose-Dependent Effect”. Also, the results for the Activity entry (in [19]; in the data set with U-251 [20]) were “Toxic” and “Dose-Dependent Effect”, respectively. For the same compound, the inhibition entry in data set [4] is “Active”. Besides, the inhibition result in the data set with U-251 [5], in the data set on U-251 [10] and with U-87 MG [17] was “Dose-Dependent Effect” in each case. Besides, the results for the IC50 with U-251 [6] and on DNA topoisomerase 1 were 9.91 µM and 47.6 µM, respectively. The compound also showed a Cmax in [8] of 8870 ng/mL. The Tmax in data set [9] came to 3.33 h. Also, the LD50 at 336 h in [11] turned out to be 750 mg/kg. Also, the result with U-251 [14], in the data set with U-87 MG [18], in the data set on U-87 MG [21] and in the data set on U-251 [22] was Active.
